In patent publication US20110306597A1, “Nicotinamide Derivatives” (priority 2008, published 2011):

Biological target: human recombinant H-PGDS (Homo sapiens, UniProt O60760)
Assay: Fluorescence Intensity h-PGDS TBA Enzyme Assay
Assay type: biochemical
Settings: 1:175,000 human recombinant H-PGDS, highest inhibitor concentration typically 1 μM
Method in brief: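 Recombinant human H-PGDS preincubated 10 min at room temperature with inhibitor in 100 mM Tris pH 8.0, 100 μM MgCl2, 2.5 mM glutathione, 0.5% DMSO; 5.0 μM PGH2 added, stopped after 42 s with FeCl2/citric acid. Remaining PGH2 measured as MDA–TBA fluorescence (ex 530/em 565 nm); IC50 by 4-parameter fit, 11 concentrations.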

Sequence of human recombinant H-PGDS (O60760 whole entry): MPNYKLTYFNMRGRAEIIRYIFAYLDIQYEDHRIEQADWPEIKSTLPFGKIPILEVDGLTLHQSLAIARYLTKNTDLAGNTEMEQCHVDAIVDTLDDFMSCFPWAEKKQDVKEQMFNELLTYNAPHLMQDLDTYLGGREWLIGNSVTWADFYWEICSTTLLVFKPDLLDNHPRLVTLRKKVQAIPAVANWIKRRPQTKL

SMILES	IC50
CC(C)N1CCC(CNC(=O)c2ccc(-c3cccc(F)c3)nc2)CC1 [Example 117, 6-(3-Fluorophenyl)-N-[(1-isopropylpiperidin-4-yl)methyl]nicotinamide]	108 nM
O=C(NCCCNc1ccccn1)c1ccc(-c2ccccc2)nc1 [Example 395, 6-Phenyl-N-[3-(pyridin-2-ylamino)propyl]nicotinamide]	4.1 nM
O=C(Nc1cccn(Cc2ccccc2)c1=O)c1ccc(-c2ccccc2)nc1 [Example 402, N-(1-Benzyl-2-oxo-1,2-dihydropyridin-3-yl)-6-phenylnicotinamide]	8 nM
CC(C)(C)C(=O)CNC(=O)c1ccc(-c2cccc(F)c2)nc1 [Example 108, N-(3,3-Dimethyl-2-oxobutyl)-6-(3-fluorophenyl)nicotinamide]	29.6 nM
O=C(NCCN1CCOC1=O)c1ccc(-c2cccc(F)c2)nc1 [Example 186, 6-(3-Fluorophenyl)-N-[2-(2-oxo-1,3-oxazolidin-3-yl)ethyl]nicotinamide]	34.6 nM
O=C(NC1CCOCC1)c1ccc(-c2cccc(F)c2)nc1 [Example 191, 6-(3-Ffluorophenyl)-N-(tetrahydro-2H-pyran-4-yl)nicotinamide]	2.33 nM
COc1cccc(-c2ccc(C(=O)NCc3ccc(S(N)(=O)=O)cc3)cn2)c1 [Example 481, N-[4-(Aminosulfonyl)benzyl]-6-(3-methoxyphenyl) nicotinamide]	365 nM
O=C(NCCN1CCCC1=O)c1ccc(-c2cccc(F)c2)nc1 [Example 183, 6-(3-Fluorophenyl)-N-[2-(2-oxopyrrolidin-1-yl)ethyl]nicotinamide]	17.4 nM
O=C(NCCN1CCCCC1)c1ccc(-c2ccccc2)nc1 [Example 361, 6-Phenyl-N-(2-piperidin-1-ylethyl)nicotinamide]	11.8 nM
COc1cc(F)cc(-c2ccc(C(=O)NCCCN3CCCC3=O)cn2)c1 [Example 543, 6-(3-Fluoro-5-methoxyphenyl)-N-[3-(2-oxopyrrolidin-1-yl)propyl]nicotinamide]	104 nM
N#CC(NC(=O)c1ccc(-c2cccc(F)c2)nc1)C(=O)NCCN1CCOCC1 (centres unmarked) [Example 212, N-{1-Cyano-2-[(2-morpholin-4-ylethyl)amino]-2-oxoethyl}-6-(3-fluorophenyl)nicotinamide]	297 nM
NC(CC(=O)NC(=O)c1ccc(-c2ccccc2)nc1)C1CC1 (centres unmarked) [Example 364, N-(3-Amino-3-cyclopropylpropanoyl)-6-phenylnicotinamide]	39.3 nM
C=CCNC(=O)c1ccc(-c2cccc(F)c2)nc1 [Example 135, N-Allyl-6-(3-fluorophenyl)nicotinamide]	46.5 nM
O=C(NCCN1CCCC1=O)c1ccc(-c2ccc(F)cc2)nc1 [Example 477, 6-(4-Fluorophenyl)-N-[2-(2-oxopyrrolidin-1-yl)ethyl]nicotinamide]	895 nM
COC(=O)CNC(=O)[C@H](C)NC(=O)c1ccc(-c2ccc(F)cc2)nc1 [Example 263, Methyl N-{[6-(4-fluorophenyl)pyridin-3-yl]carbonyl}-L-alanylglycinate]	825 nM
CC(C)(CNC(=O)c1ccc(-c2ccccc2)nc1)N1CCOCC1 [Example 353, N-(2-Methyl-2-morpholin-4-ylpropyl)-6-phenylnicotinamide]	25.3 nM

SMILES	IC50
NS(=O)(=O)c1ccc(CNC(=O)c2ccc(-c3cccc(F)c3)nc2)cc1 [Example 413, N-[4-(Aminosulfonyl)benzyl]-6-(3-fluorophenyl)nicotinamide]	92.9 nM
O=C(NCc1cc(F)cc2c1OCOC2)c1ccc(-c2ccccc2)nc1 [Example 357, N-[(6-Fluoro-4H-1,3-benzodioxin-8-yl)methyl]-6-phenylnicotinamide]	1.73 nM
O=C(NCCN1CCCCC1=O)c1ccc(-c2ccc(F)cc2)nc1 [Example 493, 6-(4-Fluorophenyl)-N-[2-(2-oxopiperidin-1-yl)ethyl]nicotinamide]	980 nM
Cc1cccc(-c2ccc(C(=O)NCc3ccc(C(F)(F)F)cc3)cn2)c1 [Example 454, 6-(3-Methylphenyl)-N-[4-(trifluoromethyl)benzyl] nicotinamide]	149 nM
CC(C)OCCCNC(=O)c1ccc(-c2cccc(F)c2)nc1 [Example 37, 6-(3-Fluorophenyl)-N-(3-isopropoxypropyl) nicotinamide]	15.8 nM
COc1ccc(OC)c(C(O)CNC(=O)c2ccc(-c3cccc(F)c3)nc2)c1 (centres unmarked) [Example 50, N-[2-(2,5-Dimethoxyphenyl)-2-hydroxyethyl]-6-(3-fluorophenyl)nicotinamide]	8.14 nM
O=C(NCCN1CCCCC1=O)c1ccc(-c2ccccc2)nc1 [Example 373, N-[2-(2-Oxopiperidin-1-yl)ethyl]-6-phenylnicotinamide]	39.7 nM
O=C(N[C@@H]1C[C@H]2CC[C@@H](C1)N2C(=O)NCCO)c1ccc(-c2cccc(F)c2)nc1 [Example 597, (3-exo)-3-({[6-(3-Fluorophenyl)-pyridin-3-yl]carbonyl}amino)-N-(2-hydroxyethyl)-8-azabicyclo[3.2.1]octane-8-carboxamide]	35 nM
Cc1cccc(-c2ccc(C(=O)NC(=O)CC(N)C3CC3)cn2)c1 (centres unmarked) [Example 248, N-(3-Amino-3-cyclopropylpropanoyl)-6-(3-methylphenyl)nicotinamide]	73.3 nM
O=C(NCC1CCCOC1)c1ccc(-c2cccc(F)c2)nc1 (centres unmarked) [Example 40, 6-(3-Fluorophenyl)-N-(tetrahydro-2H-pyran-3-ylmethyl)nicotinamide]	7.14 nM
Cc1ncsc1CCCNC(=O)c1ccc(-c2cccc(F)c2)nc1 [Example 85, 6-(3-Fluorophenyl)-N-[3-(4-methyl-1,3-thiazol-5-yl)propyl]nicotinamide]	4.88 nM
Cc1ccc(CNC(=O)c2ccc(-c3cccc(F)c3)nc2)cc1 [Example 404, 6-(3-Fluorophenyl)-N-(4-methylbenzyl)nicotinamide]	17.4 nM
O=C(NCc1ccccc1)c1ccc(-c2cccc(F)c2)nc1 [Example 432, N-Benzyl-6-(3-fluorophenyl)nicotinamide]	14.9 nM
COc1cccc(-c2ccc(C(=O)NC(C)c3ccccc3)cn2)c1 (centres unmarked) [Example 339, 6-(3-Methoxyphenyl)-N-(1-phenylethyl)nicotinamide]	266 nM
COc1ccc(C(NC(=O)c2ccc(-c3cccc(F)c3)nc2)C2CC2)cc1 (centres unmarked) [Example 202, N-[Cyclopropyl(4-methoxyphenyl)methyl]-6-(3-fluorophenyl)nicotinamide]	99.9 nM

Other lines, results leading:

IC50	SMILES
39.9 nM	CCOC(=O)c1nnc(CNC(=O)c2ccc(-c3cccc(F)c3)nc2)o1 [Example 217, Ethyl 5-[({[6-(3-fluorophenyl)pyridin-3-yl]carbonyl}amino)methyl]-1,3,4-oxadiazole-2-carboxylate]
321 nM	O=C(NCc1ccccc1)c1ccc(-c2ccc(F)cc2)nc1 [Example 499, N-Benzyl-6-(4-fluorophenyl)nicotinamide]
19.6 nM	CCOC(=O)CC(NC(=O)c1ccc(-c2cccc(F)c2)nc1)c1ccc(OC)cc1 (centres unmarked) [Example 162, Ethyl 3-({[6-(3-fluorophenyl)pyridin-3-yl]carbonyl}amino)-3-(4-methoxyphenyl)propanoate]
507 nM	CCOC(=O)CCCNC(=O)c1ccc(-c2ccc(F)cc2)nc1 [Example 330, Ethyl 4-({[6-(4-fluorophenyl)pyridin-3-yl]carbonyl}amino)butanoate]
47 nM	COC(=O)[C@H](C)NC(=O)c1ccc(-c2ccccc2)nc1 [Example 349, Methyl N-[(6-phenylpyridin-3-yl)carbonyl]alaninate]
≥ 1000 nM	COc1cccc(-c2ccc(C(=O)NCCN(C)C)cn2)c1 [Example 285, N-[2-(Dimethylamino)ethyl]-6-(3-methoxyphenyl) nicotinamide]
622 nM	O=C(NCc1noc(C(=O)N2CC[C@H](O)C2)n1)c1ccc(-c2cccc(F)c2)nc1 [Example 199, 6-(3-Fluorophenyl)-N-[(5-{[(3S)-3-hydroxypyrrolidin-1-yl]carbonyl}-1,2,4-oxadiazol-3-yl)methyl]nicotinamide]
21.7 nM	O=C(NCCN1CCCC(O)C1)c1ccc(-c2cccc(F)c2)nc1 (centres unmarked) [Example 47, 6-(3-Fluorophenyl)-N-[2-(3-hydroxypiperidin-1-yl)ethyl]nicotinamide]
58.6 nM	O=C(NCC1CN(CCc2ccccn2)C(=O)CO1)c1ccc(-c2cccc(F)c2)nc1 (centres unmarked) [Example 105, 6-(3-Fluorophenyl)-N-{[5-oxo-4-(2-pyridin-2-ylethyl)morpholin-2-yl]methyl}nicotinamide]
≥ 1000 nM	COc1ccc(C(N)CC(=O)NC(=O)c2ccc(-c3ccc(F)cc3)nc2)cc1OC (centres unmarked) [Example 466, N-[3-Amino-3-(3,4-dimethoxyphenyl)propanoyl]-6-(4-fluorophenyl)nicotinamide]
86.1 nM	COc1ccc(C(CNC(=O)c2ccc(-c3ccccc3)nc2)N2CCOCC2)cc1 (centres unmarked) [Example 400, N-[2-(4-Methoxyphenyl)-2-morpholin-4-ylethyl]-6-phenylnicotinamide]
10.3 nM	O=C(NCCC1CCC(=O)N1CCN1CCNC1=O)c1ccc(-c2ccccc2)nc1 (centres unmarked) [Example 360, N-(2-{5-Oxo-1-[2-(2-oxoimidazolidin-1-yl)ethyl]pyrrolidin-2-yl}ethyl)-6-phenylnicotinamide]
85.5 nM	Cc1cccc(-c2ccc(C(=O)NCCc3nc(C)no3)cn2)c1 [Example 233, N-[2-(3-Methyl-1,2,4-oxadiazol-5-yl)ethyl]-6-(3-methylphenyl)nicotinamide]
20.2 nM	CC(CCCC(C)(C)O)NC(=O)c1ccc(-c2cccc(F)c2)nc1 (centres unmarked) [Example 24, 6-(3-Fluorophenyl)-N-(5-hydroxy-1,5-dimethylhexyl)nicotinamide]
536 nM	COc1cccc(-c2ccc(C(=O)NCc3ccc(C(F)(F)F)cc3)cn2)c1 [Example 286, 6-(3-Methoxyphenyl)-N-[4-(trifluoromethyl)benzyl] nicotinamide]
578 nM	O=C(NCCc1cccs1)c1ccc(-c2ccc(F)cc2)nc1 [Example 507, 6-(4-Fluorophenyl)-N-[2-(2-thienyl)ethyl]nicotinamide]
